# Source: publication PMC6125496 (Antimicrobial Agents and Chemotherapy, 2018)
# Read-outs that look alike come from different tables or passages of the source.
# Columns and labels:
# [1] = tested on: Acinetobacter baumannii ATCC 19606; test: microbe, parasite or virus in culture; settings: Acinetobacter baumannii, ATCC19606
# Excerpt: (§1) Reference strains are from the German Collection of Microorganisms and Cell Cultures (DSMZ), the American Type Culture Collection (ATCC), the National Collection of Type Cultures (NCTC), and the Medical and Molecular Microbiology, Faculty of Science and Medicine, University of Fribourg, Switzerland.
# [2] = tested on: Ciprofloxacin-resistant E. coli (19); test: microbe, parasite or virus in culture; settings: Escherichia coli
# Excerpt: as §1
# [3] = tested on: Ciprofloxacin-resistant K. pneumoniae (27); test: microbe, parasite or virus in culture; settings: Klebsiella pneumoniae
# Excerpt: as §1
# [4] = tested on: Citrobacter freundii (16); test: microbe, parasite or virus in culture; settings: Citrobacter freundii
# Excerpt: as §1
# [5] = tested on: Citrobacter freundii DSM 30039; test: microbe, parasite or virus in culture; settings: Citrobacter freundii, DSM30039
# Excerpt: as §1
# [6] = tested on: Citrobacter kozeri DSM 4595; test: microbe, parasite or virus in culture; settings: Citrobacter, DSM4595
# Excerpt: as §1
# [7] = tested on: Enterobacter aerogenes DSM 30053; test: microbe, parasite or virus in culture; settings: Klebsiella aerogenes, DSM30053
# Excerpt: as §1
# [8] = tested on: Enterobacter cloacae (13); test: microbe, parasite or virus in culture; settings: Enterobacter cloacae
# Excerpt: as §1
# [9] = tested on: Enterobacter cloacae DSM 14563; test: microbe, parasite or virus in culture; settings: Enterobacter cloacae, DSM14563
# Excerpt: as §1
# [10] = tested on: Enterococcus faecalis DSM 2570; test: microbe, parasite or virus in culture; settings: Enterococcus faecalis, DSM2570
# Excerpt: as §1
# [11] = tested on: Enterococcus faecium DSM 20477; test: microbe, parasite or virus in culture; settings: Enterococcus faecium, DSM20477
# Excerpt: as §1
# Escherichia coli (101) = test: microbe, parasite or virus in culture; settings: Escherichia coli
# Excerpt: as §1
# [12] = tested on: Escherichia coli ATCC 25922; test: microbe, parasite or virus in culture; settings: Escherichia coli, ATCC25922
# Excerpt: as §1
# [13] = tested on: Escherichia coli BAA-2469; test: microbe, parasite or virus in culture; settings: NDM-1
# Excerpt: as §1
# [14] = tested on: Escherichia coli BAA-2471; test: microbe, parasite or virus in culture; settings: Escherichia coli, BAA2471
# Excerpt: as §1
# [15] = tested on: Gentamicin-resistant K. pneumoniae (16); test: microbe, parasite or virus in culture; settings: Klebsiella pneumoniae
# Excerpt: as §1
# [16] = tested on: Klebsiella pneumoniae (56); test: microbe, parasite or virus in culture; settings: Klebsiella pneumoniae
# Excerpt: as §1
# [17] = tested on: Klebsiella pneumoniae ATCC 43816; test: microbe, parasite or virus in culture; settings: Klebsiella pneumoniae, ATCC43816
# Excerpt: as §1
# [18] = tested on: Klebsiella pneumoniae ATCC BAA-1904; test: microbe, parasite or virus in culture; settings: Klebsiella pneumoniae, ATCCBAA1904
# Excerpt: as §1
# [19] = tested on: Klebsiella pneumoniae ATCC BAA-1905; test: microbe, parasite or virus in culture; settings: Klebsiella pneumoniae, ATCCBAA1905
# Excerpt: as §1
# [20] = tested on: Klebsiella pneumoniae NCTC 13439; test: microbe, parasite or virus in culture; settings: Klebsiella pneumoniae, NCTC13439
# Excerpt: as §1
# [21] = tested on: Klebsiella pneumoniae NCTC 13442; test: microbe, parasite or virus in culture; settings: Klebsiella pneumoniae, NCTC13442
# Excerpt: as §1
# [22] = tested on: Klebsiella pneumoniae NCTC 13443; test: microbe, parasite or virus in culture; settings: Klebsiella pneumoniae, NCTC13443
# Excerpt: as §1
# [23] = tested on: Pseudomonas aeruginosa DSM 1117; test: microbe, parasite or virus in culture; settings: Pseudomonas aeruginosa, DSM1117
# Excerpt: as §1
# [24] = tested on: Serratia marcescens DSM 17174; test: microbe, parasite or virus in culture; settings: Serratia marcescens, DSM17174
# Excerpt: as §1
# [25] = tested on: Staphylococcus aureus ATCC 29213; test: microbe, parasite or virus in culture; settings: Staphylococcus aureus, ATCC29213
# Excerpt: as §1
# [26] = tested on: Staphylococcus epidermidis ATCC 12228; test: microbe, parasite or virus in culture; settings: Staphylococcus epidermidis, ATCC12228
# Excerpt: as §1
# [27] = tested on: Stenotrophomonas maltophilia ATCC 13637; test: microbe, parasite or virus in culture; settings: Stenotrophomonas maltophilia, ATCC13637
# Excerpt: as §1
# [28] = tested on: Streptococcus pneumoniae DSM 2134; test: microbe, parasite or virus in culture; settings: Streptococcus pneumoniae, DSM2134
# Excerpt: as §1
# [29] = tested on: human renal proximal tubular epithelial cells (HRPTEpiC); test: Multiplexed HRPTEpiC cytotoxicity assay (cell viability, KIM-1, HSP27)
# Experimental: The multiplexed cytotoxicity assay on human renal proximal tubule epithelial cells (HRPTEpiC) was conducted by Eurofins Panlabs (Eurofins Panlabs, Inc., St. Charles, MO) by using an image-based high content analysis (HCA) technique where cells were fixed and stained with nuclear dye to visualize nuclei and fluorescently labeled antibodies to detect drug-induced cellular injury and cellular stress arising from oxidative and chemical stress. Cells were seeded into 384-well plates and grown in RPMI 1640, 10% fetal bovine serum (FBS), 2 mM L-alanyl-L-glutamine, and 1 mM sodium pyruvate in a humidified atmosphere of 5% CO2 at 37°C. […] Compounds were serially diluted 3.16-fold and assayed over 10 concentrations in a final assay concentration of 0.5% dimethyl sulfoxide (DMSO) from 100 μM to 3.7 nM. At the same time, a time zero untreated cell plate was generated. After a 48-h incubation period, cells were fixed and stained with fluorescently labeled antibodies and nuclear dyed to allow visualization of nuclei, injured cells, and stressed cells. Injured cells were detected using a KIM-1 (kidney injury molecule 1) antibody. Stressed cells were detected using an anti-HSP27 (heat shock protein 27) antibody. Cell proliferation was measured by the signal intensity of the incorporated nuclear dye. The cell proliferation assay output was referred to as the relative cell count. To determine the cell proliferation endpoint, the cell proliferation data output was transformed to percentage of control (POC) using the following formula: POC = relative cell count in compound wells/relative cell count in vehicle wells × 100. The signal intensity of the incorporated cellular stress and injury measurements were normalized with the relative cell count from each well. Automated fluorescence microscopy was carried out using a Molecular Devices ImageXpress micro-imager, and images were collected with a 4× objective.
# [30] = tested on: K. pneumoniae NCTC 13442 (OXA-48); test: Neutropenic mouse lung infection model; assay type: in vivo, Klebsiella pneumoniae; settings: 160 mg/kg/day s.c. (40 mg/kg at 2, 8, 14, 20 h), 26 h postchallenge
# [31] = tested on: Escherichia coli, colistin-resistant (25)
# Excerpt: as §1
# [32] = tested on: Klebsiella pneumoniae, colistin resistant (46)
# Excerpt: as §1
# [33] = Escherichia coli, BAA2469, Ambler class B carbapenemase
compound,measurement,setting,value
"CNC(C)C1CCC(N)C(OC2C(N)CC(N)C(OC3OCC(C)(O)C(NC)C3O)C2O)O1 (centres unmarked) [GEN, gentamicin]",MIC,[1],16 µg/mL
same,MIC50,[2],0.5 µg/mL
same,MIC90,[2],> 32 µg/mL
same,MIC50,[3],32 µg/mL
same,MIC90,[3],> 32 µg/mL
same,MIC50,[4],1 µg/mL
same,MIC90,[4],> 32 µg/mL
same,MIC,[5],0.5 µg/mL
same,MIC,[6],0.25 µg/mL
same,MIC,[7],0.25 µg/mL
same,MIC50,[8],32 µg/mL
same,MIC90,[8],> 32 µg/mL
same,MIC,[9],0.5 µg/mL
same,MIC,[10],16 µg/mL
same,MIC,[11],8 µg/mL
same,MIC50,Escherichia coli (101),1 µg/mL
same,MIC90,Escherichia coli (101),2 µg/mL
same,MIC,[12],1 µg/mL
same,MIC,[13]; [33],> 64 µg/mL
same,MIC,[14],> 64 µg/mL
same,MIC50,[15],> 32 µg/mL
same,MIC90,[15],> 32 µg/mL
same,MIC50,[16],1 µg/mL
same,MIC90,[16],> 32 µg/mL
same,MIC,[17],0.25 µg/mL
same,MIC,[18],16 µg/mL
same,MIC,[19],32 µg/mL
same,MIC,[20],1 µg/mL
same,MIC,[21],0.25 µg/mL
same,MIC,[22],> 64 µg/mL
same,MIC,[23],1 µg/mL
same,MIC,[24],0.5 µg/mL
same,MIC,[25],0.5 µg/mL
same,MIC,[26],≤ 0.125 µg/mL
same,MIC,[27],4 µg/mL
same,MIC,[28],8 µg/mL
same,cytotoxicity to HRPTEpiC (in words),"[29]; concentrations up to 100 μM, 48-h incubation",not cytotoxic
same,concentration inducing a significant (5-fold) increase of HSP27 level,[29]; tested up to 100 μM,22.4 µM
same,concentration inducing a significant (5-fold) increase of KIM-1 level,[29]; tested up to 100 μM,> 100 µM
"C[C@@H](O)[C@H]1C(=O)N2C(C(=O)O)=C(SCCN=CN)C[C@H]12 [IPM, imipenem]",MIC,[1],0.5 µg/mL
same,MIC,[5],1 µg/mL
same,MIC,[6],4 µg/mL
same,MIC,[7],2 µg/mL
same,MIC,[9],1 µg/mL
same,MIC,[10],1 µg/mL
same,MIC,[11],4 µg/mL
same,MIC,[12],0.25 µg/mL
same,MIC,[13]; [33],32 µg/mL
same,MIC,[14],> 64 µg/mL
same,MIC,[17],1 µg/mL
same,MIC,[18],32 µg/mL
same,MIC,[19],> 64 µg/mL
same,MIC,[20],32 µg/mL
same,MIC,[21],16 µg/mL
same,MIC,[22],> 64 µg/mL
same,MIC,[23],2 µg/mL
same,MIC,[24],2 µg/mL
same,MIC,[25],≤ 0.125 µg/mL
same,MIC,[26],≤ 0.125 µg/mL
same,MIC,[27],> 64 µg/mL
same,MIC,[28],≤ 0.125 µg/mL
"CN(C)c1cc(NC(=O)CNC(C)(C)C)c(O)c2c1C[C@H]1C[C@H]3[C@H](N(C)C)C(O)=C(C(N)=O)C(=O)[C@@]3(O)C(O)=C1C2=O [TGC, tigecycline]",MIC,[1],1 µg/mL
same,MIC,[5],1 µg/mL
same,MIC,[6],1 µg/mL
same,MIC,[7],1 µg/mL
same,MIC,[9],4 µg/mL
same,MIC,[10],0.25 µg/mL
same,MIC,[11],0.125 µg/mL
same,MIC,[12],0.25 µg/mL
same,MIC,[13]; Ambler class B carbapenemase,1 µg/mL
same,MIC,[13]; [33],0.5 µg/mL
same,MIC,[14],1 µg/mL
same,MIC,[17],2 µg/mL
same,MIC,[18],2 µg/mL
same,MIC,[19],4 µg/mL
same,MIC,[20],2 µg/mL
same,MIC,[21],2 µg/mL
same,MIC,[22],4 µg/mL
same,MIC,[23],> 8 µg/mL
same,MIC,[24],4 µg/mL
same,MIC,[25],0.5 µg/mL
same,MIC,[26],0.5 µg/mL
same,MIC,[27],0.5 µg/mL
same,MIC,[28],0.125 µg/mL
same,reduction of lung burden relative to vehicle,[30],3.14 log10 CFU/gram of lung tissue
colistin [CST],MIC range,[31]; Unknown mechanism (2 isolates),16 µg/mL
same,MIC range,[31]; mcr-1 (21 isolates),4 to 16 µg/mL
same,MIC range,[31]; mcr-2 (1 isolate),8 µg/mL
same,MIC range,[31]; mcr-3 (1 isolate),16 µg/mL
same,MIC range,[32]; Unknown mechanism (1),32 µg/mL
same,MIC range,[32]; crrB G183V substitution (1),>128 µg/mL
same,MIC range,[32]; crrB N141Y substitution (1),>128 µg/mL
same,MIC range,[32]; crrB P151L substitution (1),>128 µg/mL
same,MIC range,[32]; mcr-1 (1),32 µg/mL
same,MIC range,[32]; mgrB IS1R between +44 and +45 (2),128 µg/mL
same,MIC range,[32]; mgrB IS1R into promoter between −45 and −46 (3),32 to 128 µg/mL
same,MIC range,[32]; mgrB IS5 between +74 and +75 (4),16 to 128 µg/mL
same,MIC range,[32]; mgrB IS903B between +69 and +70 (2),64 µg/mL
same,MIC range,[32]; mgrB ISKpn14 into promoter between −28 and −29 (2),64 µg/mL
same,MIC range,[32]; mgrB M27K substitution (1),32 µg/mL
same,MIC range,[32]; mgrB N42Y and K43I substitutions (1),32 µg/mL
same,MIC range,[32]; mgrB W20R substitution (1),32 µg/mL
same,MIC range,[32]; mgrB W47R substitution (1),8 µg/mL
same,MIC range,[32]; mgrB premature termination (6),32 to 128 µg/mL
same,MIC range,[32]; phoQ R16C substitution (1),>128 µg/mL
same,MIC range,[32]; pmrB L17Q substitution (1),32 µg/mL
same,MIC range,[32]; pmrB T157P substitution (6),8 to 32 µg/mL
